# Patent US20210386367A1, “DEVICES AND SYSTEMS FOR GASTROINTESTINAL MICROBIOME DETECTION AND MANIPULATION” (Progenity, Inc., priority 2018, published 2021)
# Where two headings read alike, the source gives them in different places.
# What was measured:
# E. coli MMX 1312 = assay: Broth microdilution MIC (time-kill study); format: cell-based, Escherichia coli
# Streptococcus pyogenes = assay: Broth microdilution MIC, 19 clinical isolates; format: cell-based
# Method: (§1) Minimal inhibitory concentration (MIC) values were determined by broth microdilution or agar dilution in accordance with guidelines from the Clinical and Laboratory Standards Institute (CLSI; (1) “Methods for Dilution Antimicrobial Susceptibility Tests for Bacteria That Grow Aerobically; Approved Standard; 11th ed.” CLSI standard M07-A11, 2018; (2) “Performance Standards for Antimicrobial Susceptibility Testing; Twenty-Eighth Informational Supplement,” CLSI document M100-S28, 2018; and (3) “Methods for Antimicrobial Susceptibility Testing of Anaerobic Bacteria; Approved Standard—Eighth Edition,” CLSI document M11-A8, 2012).
# (§2) Tested aerobically by broth microdilution: • Escherichia coli, n=50 • Klebsiella spp., n=50 • Pseudomonas aeruginosa, n=50 • Streptococcus spp., n=50 • Staphylococcus aureus, n=50 • Enterococcus faecalis, n=50 • Enterobacter aerogenes, n=50 • Proteus mirabilis, n=50
# (§3) Broth microdilution testing of aerobic bacteria was conducted in cation-adjusted Mueller Hinton broth (MHBII). For testing streptococci, lysed horse blood (LHB) was added to MHBII broth at a final concentration of 3%. Where LHB was used, it was added after filtering.
# (§4) Broth microdilution susceptibility testing in 96-well microplates was conducted in accordance with CLSI methods (1) and (2). Automated liquid handlers were used to conduct serial dilutions and liquid transfers, including the Multidrop 384 (Labsystems, Helsinki, Finland), Biomek 2000, and the Biomek FX (Beckman Coulter, Fullerton, Calif.). All wells in columns 2 through 12 of a standard 96-well microdilution plate (Costar 3795) were filled with 150 μL of the appropriate diluent. Then, 300 μL of the test agents were added to the wells of column 1 of the plates at 100× the highest final concentration to be tested. Serial two-fold dilutions were made across the rows through column 11 using the Biomek 2000. The wells of column 12 contained no drug and served as the growth control wells. This plate served as the “mother plate” from which MIC assay plates or “daughter plates” were made.
# (§5) The daughter plates were loaded with 190 μL per well of the appropriate medium using the Multidrop 384. The daughter plates were created using the Biomek FX which transferred 2 μL of drug solution from each well of a mother plate to each corresponding well of the daughter plate in a single step. A standardized inoculum of each test organism was prepared per CLSI methods (1) to equal a 0.5 McFarland standard, followed by a dilution of 1:20 for aerobes and 1:10 for anaerobes. The plates were then inoculated with 10 μL of the diluted inoculum using the Biomek 2000 from low to high drug concentration, resulting in a final concentration of approximately 5×10^5 CFU/mL per well. An un-inoculated plate was incubated in parallel for each medium for the purpose of assessing solubility of the drug in the test media.
# (§6) Inoculated plates were stacked 3 or 4 high, covered with a sterile lid on the top plate, placed into boxes with CO2 planchets (streptococci) or plastic bags (all other isolates). Plates were incubated at 35° C. for 16-24 hr in ambient air for aerobes or for 42-48 hr in the anaerobic environment of the Bactron II anaerobe chamber (Sheldon Manufacturing Co.; Cornelius, Oreg.). Following incubation, the microplates were removed from the incubator and viewed from the bottom using a plate viewer. The MIC values were read and recorded as the lowest concentration of drug that inhibited visible growth of the organism as per CLSI methods (1) and (2).
# [1] = test system: Enterococcus faecalis clinical isolates; assay: MIC distribution against clinical isolates; format: cell-based; details: 50 E. faecalis isolates
# Streptococcus agalactiae = assay: Broth microdilution MIC, 20 clinical isolates; format: cell-based; details: for Mode: modal MIC
# Method: as §1, §2, §3, §4, §5, §6
# [2] = test system: Viridans group Streptococci clinical isolates; assay: MIC distribution against clinical isolates; format: cell-based; details: 15 Viridans group Streptococci isolates
# Excerpt: (§7) As used herein, “minimum inhibitory concentration” or “MIC” refers to the lowest concentration of an antimicrobial agent, for example, an antimicrobial agent as described herein, required to inhibit the growth of an organism. […] “MIC90” represents the MIC value at which ≥90% of the strains within a test population are inhibited; the 90th percentile.
# (§8) Many susceptibility testing methods are known in the art and can be used as described herein (see, e.g., Jorgensen and Ferraro (2009) Clinical Infectious Diseases 49:1749-1755; and Maurer et al. (2017) Infectious Disease Reports 9:6839; the entire contents of each of the foregoing are incorporated herein by reference). For example, antimicrobial susceptibility can be determined using conventional culture based methods such as the broth or agar dilution test. In these dilution tests, the bacterial isolate of interest is inoculated onto different media that include serial dilutions of an antimicrobial agent, and incubated under appropriate conditions (e.g., overnight at 37° C.) to allow for growth to occur. Following the incubation period, the media is examined to determine bacterial growth. The lowest concentration of antibiotic that prevents growth represents the minimal inhibitory concentration (MIC). Broth dilution tests can be miniaturized and mechanized allowing for reproducibility and high throughput.
# [3] = test system: Streptococcus pyogenes clinical isolates; assay: MIC distribution against clinical isolates; format: cell-based
# Excerpt: as §7, §8
# [4] = Streptococcus pyogenes, read-out: MIC50
# [5] = Streptococcus pyogenes, read-out: MIC90
# [6] = MIC 0.015 μg/mL, 19 S. pyogenes isolates
# [7] = MIC 0.03 μg/mL, 19 S. pyogenes isolates
# [8] = MIC 0.06 μg/mL, 19 S. pyogenes isolates
# [9] = 20 Streptococcus agalactiae clinical isolates
# [10] = MIC 0.5 μg/mL, 19 S. pyogenes isolates
# [11] = MIC 0.008 μg/mL, 19 S. pyogenes isolates
# [12] = MIC ≤0.004 μg/mL, 19 S. pyogenes isolates
compound,measurement,setting,value
CO/N=C(\C(=O)N[C@@H]1C(=O)N2C(C(=O)O)=C(CSc3nc(=O)c(=O)[nH]n3C)CS[C@H]12)c1csc(N)n1 [ceftriaxone],MIC,E. coli MMX 1312; E. coli MMX 1312,4 µg/mL
same,MIC,"E. coli MMX 1312; Escherichia coli, MMX1312, broth microdilution, read-out: MIC",4 µg/mL
same,% S,Streptococcus pyogenes,100%
same,MIC range,Streptococcus pyogenes,0.015 to 0.06 µg/mL
same,Mode,Streptococcus pyogenes,0.015 µg/mL
same,MIC50,Streptococcus pyogenes; [4],0.015 µg/mL
same,MIC90,Streptococcus pyogenes; [5],0.03 µg/mL
same,Cumulative percentage of isolates inhibited at MIC,[1]; MIC 1 μg/mL,2.0%
same,Number of test isolates at MIC,[1]; MIC 1 μg/mL,1
same,Cumulative percentage of isolates inhibited at MIC,[1]; MIC 16 μg/mL,4.0%
same,Number of test isolates at MIC,[1]; MIC 16 μg/mL,1
same,Cumulative percentage of isolates inhibited at MIC,[1]; MIC 64 μg/mL,10.0%
same,Number of test isolates at MIC,[1]; MIC 64 μg/mL,3
same,Cumulative percentage of isolates inhibited at MIC,[1]; MIC >64 μg/mL,100.0%
same,Number of test isolates at MIC,[1]; MIC >64 μg/mL,45
same,MIC50,"Streptococcus agalactiae; Streptococcus agalactiae, read-out: MIC50",0.06 µg/mL
same,MIC90,"Streptococcus agalactiae; Streptococcus agalactiae, read-out: MIC90",0.06 µg/mL
same,Cumulative percentage of isolates inhibited at MIC,[2]; MIC 0.008 μg/mL,6.7%
same,Number of test isolates at MIC,[2]; MIC 0.008 μg/mL,1
same,Cumulative percentage of isolates inhibited at MIC,[2]; MIC 0.015 μg/mL,20.0%
same,Number of test isolates at MIC,[2]; MIC 0.015 μg/mL,2
same,Cumulative percentage of isolates inhibited at MIC,[2]; MIC 0.03 μg/mL,33.3%
same,Number of test isolates at MIC,[2]; MIC 0.03 μg/mL,2
same,Cumulative percentage of isolates inhibited at MIC,[2]; MIC 0.06 μg/mL,66.7%
same,Number of test isolates at MIC,[2]; MIC 0.06 μg/mL,5
same,Cumulative percentage of isolates inhibited at MIC,[2]; MIC 0.5 μg/mL,93.3%
same,Number of test isolates at MIC,[2]; MIC 0.5 μg/mL,1
same,Cumulative percentage of isolates inhibited at MIC,[2]; MIC 1 μg/mL,100.0%
same,Number of test isolates at MIC,[2]; MIC 1 μg/mL,1
same,Cumulative percentage of isolates inhibited at MIC,[3]; [6],84.2%
same,Number of test isolates at MIC,[3]; [6],16
same,Cumulative percentage of isolates inhibited at MIC,[3]; [7],94.7%
same,Number of test isolates at MIC,[3]; [7],2
same,Cumulative percentage of isolates inhibited at MIC,[3]; [8],100.0%
same,Number of test isolates at MIC,[3]; [8],1
COc1c(N2C[C@@H]3CCCN[C@@H]3C2)c(F)cc2c(=O)c(C(=O)O)cn(C3CC3)c12 [moxifloxacin],MIC range,Streptococcus pyogenes,0.06 to 0.5 µg/mL
same,Mode,Streptococcus pyogenes,0.12 µg/mL
same,MIC50,Streptococcus pyogenes; [4],0.12 µg/mL
same,MIC90,Streptococcus pyogenes; [5],0.25 µg/mL
same,Cumulative percentage of isolates inhibited at MIC,[1]; MIC 0.06 μg/mL,2.0%
same,Number of test isolates at MIC,[1]; MIC 0.06 μg/mL,1
same,Cumulative percentage of isolates inhibited at MIC,[1]; MIC 0.5 μg/mL,52.0%
same,Number of test isolates at MIC,[1]; MIC 0.5 μg/mL,4
same,Cumulative percentage of isolates inhibited at MIC,[1]; MIC 2 μg/mL,54.0%
same,Number of test isolates at MIC,[1]; MIC 2 μg/mL,1
same,Cumulative percentage of isolates inhibited at MIC,[1]; MIC 4 μg/mL,56.0%
same,Number of test isolates at MIC,[1]; MIC 4 μg/mL,1
same,Cumulative percentage of isolates inhibited at MIC,[1]; MIC 8 μg/mL,66.0%
same,Number of test isolates at MIC,[1]; MIC 8 μg/mL,5
same,Cumulative percentage of isolates inhibited at MIC,[1]; MIC >8 μg/mL,100.0%
same,Number of test isolates at MIC,[1]; MIC >8 μg/mL,17
same,MIC range,Streptococcus agalactiae; [9],0.06 to 0.25 µg/mL
same,MIC50,"Streptococcus agalactiae; 20 Streptococcus agalactiae clinical isolates, read-out: MIC50",0.12 µg/mL
same,MIC90,"Streptococcus agalactiae; 20 Streptococcus agalactiae clinical isolates, read-out: MIC90",0.12 µg/mL
same,Mode,Streptococcus agalactiae; [9],0.12 µg/mL
same,Cumulative percentage of isolates inhibited at MIC,[2]; MIC 0.06 μg/mL,26.7%
same,Number of test isolates at MIC,[2]; MIC 0.06 μg/mL,4
same,Cumulative percentage of isolates inhibited at MIC,[2]; MIC 2 μg/mL,80.0%
same,Number of test isolates at MIC,[2]; MIC 2 μg/mL,2
same,Cumulative percentage of isolates inhibited at MIC,[2]; MIC 4 μg/mL,93.3%
same,Number of test isolates at MIC,[2]; MIC 4 μg/mL,2
same,Cumulative percentage of isolates inhibited at MIC,[2]; MIC 8 μg/mL,100.0%
same,Number of test isolates at MIC,[2]; MIC 8 μg/mL,1
same,Cumulative percentage of isolates inhibited at MIC,[3]; [8],31.6%
same,Number of test isolates at MIC,[3]; [8],6
same,Cumulative percentage of isolates inhibited at MIC,[3]; [10],100.0%
same,Number of test isolates at MIC,[3]; [10],1
Penicillin,% S,Streptococcus pyogenes,100%
same,MIC50,Streptococcus pyogenes,<0.004 µg/mL
same,MIC90,Streptococcus pyogenes,0.008 µg/mL
same,MIC range,Streptococcus pyogenes,≤0.004-0.03^ μg/mL
same,Mode,Streptococcus pyogenes,<0.004 µg/mL
same,MIC50,Streptococcus agalactiae; [9],0.03 µg/mL
same,MIC90,Streptococcus agalactiae; [9],0.03 µg/mL
same,MIC range,Streptococcus agalactiae; [9],0.015 to 0.06 µg/mL
same,% S,"Streptococcus agalactiae; 20 Streptococcus agalactiae clinical isolates, MXF by FDA breakpoints",100%
same,Mode,Streptococcus agalactiae; [9],0.03 µg/mL
same,Cumulative percentage of isolates inhibited at MIC,[2]; MIC 0.008 μg/mL,6.7%
same,Number of test isolates at MIC,[2]; MIC 0.008 μg/mL,1
same,Cumulative percentage of isolates inhibited at MIC,[2]; MIC 1 μg/mL,100.0%
same,Cumulative percentage of isolates inhibited at MIC,[3],100.0%
same,Number of test isolates at MIC,[3],1
same,Cumulative percentage of isolates inhibited at MIC,[3]; [11],94.7%
same,Number of test isolates at MIC,[3]; [11],8
same,Cumulative percentage of isolates inhibited at MIC,[3]; [12],52.6%
same,Number of test isolates at MIC,[3]; [12],10
